The text below walks through data of a melting point compilation (Tetko et al.; mined from patent text by program, amines drawn as free bases though some values may be those of a salt).

One may read the melting point as the temperature, or range, at which the solid turns liquid.

SMILES strings stand for the structures. Residues, ends and D or L forms follow the SMILES beside them.

In the case of `CCOCc1nc2c(N)nc3cc(OCc4cccc(OC)c4)ccc3c2n1CC(C)(C)NS(C)(=O)=O`, the melting point fell in the range of 221 to 222 °C.

As for `FC(F)(F)c1cccc(OCc2ccc3ccccc3n2)c1`, the melting point is 77 to 78 °C.

The molecule `COCCCc1ccc(CNC(=O)[C@@H](COC)NC(C)=O)cc1` yielded a melting point of 105 to 107 °C.

For `COc1ccc(-c2ccnc3c(C(N)=O)ncn23)cc1OC`, the melting point fell in the range of 262 to 265 °C.

With `C=Cc1c(F)c(F)c(F)c2c1c(=O)c(C(=O)OCC)cn2C1CC1`, the melting point was in the range of 188 to 189 °C.

Consider `COc1ccc(/C=C/C(=O)N2CCc3ccccc32)cc1OC`, for which the melting point is 118 to 120 °C.

Turning to `O=C1NC(=O)C(Cc2ccc(C(=O)COc3ccccc3)cc2)S1` (stereo not given), the melting point lay within 170 to 174 °C.

Molecule `CCOC(=O)C1=CC(=O)C2(C(=O)c3ccccc3)OC2O1` (stereo not given) gave a melting point of 96 to 98 °C.

`O=CC(Nc1ccc2c(c1)OCC(=O)N2)N1CCC(Cc2ccccc2)CC1` (stereo not given) showed a melting point of 172 to 175 °C.

The molecule `CCCC(=O)c1c[nH]c2c(OC)cccc2c1=O` had a melting point of 200 to 202 °C.

With `C[C@H](NC(=O)OCc1ccccc1)C(=O)N[C@@H](C)C(=O)NC1CCCCC1`, the melting point lay in the range of 233 to 234 °C.

For `O=C(N[C@H](Cc1ccc(C(F)(F)F)cc1)[C@H](O)c1ccc(F)cc1)c1ccc(C(F)(F)F)cc1` (racemic), the melting point is 162 to 163 °C.

In turn, `CC(C)C[C@@H](CC(=O)O)NC(=O)[C@@H](CS)C(F)(F)F` registered a melting point of 155 to 156 °C.

As for `N#CC1=CC(Br)=NC1(N)C#N` (stereo not given), the melting point was more than 210 °C.

Molecule `CC1CC(=O)NN=C1c1ccc(NN=C(c2ccc(O)cc2O)c2ccc(O)cc2O)cc1` (stereo not given) registered a melting point of 150 to 175 °C.

`COc1ccc(Cc2nc3cccc([N+](=O)[O-])c3o2)cc1OC1CCCC1` had a melting point of 95 to 98.5 °C.

Turning to `Cc1nc(-c2cccc(OC(C)C)c2)sc1C(=O)O`, the melting point fell in the range of 177 to 179 °C.

As for `CCCCCCCN(C[C@H]1CCCC[C@H]1CN(CCCCCCC)C(=O)Nc1ccc(N(C)C)cc1)C(=O)Nc1ccc(N(C)C)cc1`, the melting point lay within 135 to 138 °C.

As to `OCCc1coc(-c2ccc3ccccc3c2)n1`, the melting point was 96 to 98 °C.

On to `Cc1cn(C2C=CC(CO)O2)c(=O)[nH]c1=S` (stereo not given), for which the melting point lay in the range of 117 to 118 °C.

Consider `CCCCCNS(=O)(=O)NC(=O)/C=C/c1ccc(OCCOC)cc1Oc1ncc(C(F)(F)F)cc1Cl`, for which the melting point is 120 to 122 °C.

In the case of `O=C(Nc1cccc(F)n1)c1cc(-c2ccc(Cl)c(Cl)c2)nc2ccccc12`, the melting point fell in the range of 204 to 206 °C.

Regarding `NC(=O)c1cnn2cccc2c1NC1CCCCCC1`, the melting point stood at 279 °C.

The molecule `Clc1ccc2c(NCCC34C=CCN3CCC4)ccnc2c1` (stereo not given) showed a melting point of 124 to 125 °C.

Molecule `Cc1nccc2[nH]c(=O)c(N)cc12` came in with a melting point of 283 to 285 °C.

For `O=[N+]([O-])c1ccc(Cl)cc1Cc1ccccn1`, the melting point was 69 °C.

`Cn1nnnc1SCc1ccccc1` had a melting point of 48.5 to 49.5 °C.

`CCNc1nc(-c2ccccc2)c(-c2ccccc2)nc1Cl` had a melting point of 115 to 122 °C.

`CC(C)c1ccc(C(=O)c2ccc(CC(=O)O)n2C)cc1` returned a melting point of 98 to 101 °C.

The molecule `C#Cc1cncc(C2CCC(=O)N2C)c1` (stereo not given) showed a melting point of 83 to 84 °C.

Turning to `CCOC(=O)N1CCc2nc3cccc(N)c3c(C)c2CC1`, the melting point stood at 182 °C.

The molecule `O=C(O)c1n[nH]c2cc(F)ccc12` yielded a melting point of more than 290 °C.

Regarding `CCOC(=O)/C=C(C)/C=C/C=C(\C)C1=Cc2cc(C(C)(C)C)cc(C)c2OC1`, the melting point came to 73 °C.

The molecule `CN1CCc2c([nH]c(Br)c2Br)C(c2ccccc2)C1` (stereo not given) had a melting point of 136 to 137 °C.

Regarding `O=C(C1CCN(c2ccncn2)C1)N1CCNCC1` (stereo not given), the melting point is 129 to 131 °C.

Molecule `O=C1CCC(N2Cc3c(OCc4ccc(CN5CCC(C(F)(F)F)CC5)cc4)cccc3C2=O)C(=O)N1` (stereo not given) registered a melting point of 178 to 180 °C.

In turn, `c1ccc(C2CC(n3ccnc3)c3ccccc3N2)cc1` (stereo not given) showed a melting point of 170 to 172 °C.

In the case of `COc1ccc(OC)c2c1C[C@@H](O)[C@H](N1CCN(c3cccc(C(F)(F)F)c3)CC1)C2` (relative stereo), the melting point was in the range of 184 to 187 °C.

`CN1C(=O)Cc2cc(C(=O)[C@H]3C[C@H]3C(=O)O)ccc21` (relative stereo) showed a melting point of 237 to 240 °C.

`N#Cc1cc2c(cc1F)OCC21C(=O)Nc2ccccc21` (stereo not given) showed a melting point of 222 to 224 °C.

In the case of `CCCCc1nn(-c2cc(C(=O)N(C)CCCC)ccc2Cl)c(=O)n1Cc1ccc(-c2ccccc2S(=O)(=O)NC(=O)c2ccccc2Cl)cc1`, the melting point is more than 90 °C.

Turning to `O=C(CCCN1CCC(O)CC1)c1ccccc1`, the melting point is 101 to 102 °C.

Take `OCCOc1cccc(-c2n[nH]c3c2Cc2ccccc2-3)c1`: the melting point lay within 203 to 205 °C.

For the molecule `C#Cc1cccc(Nc2ncnc3ccc(S(=O)(=O)n4ccc(C=CC(=O)Nc5ccccc5N)c4)cc23)c1`, the melting point lay within 150 to 153 °C.

With `COc1cc2c3c(n(C)c(=O)c2cc1OC)-c1cc2c(cc1C3=CCCCCl)OCO2`, the melting point lay within 196 to 201 °C.

In turn, `CCOC(=O)c1ccc(C(=O)Nc2ccc3c(c2)N(C)C(=O)C(C)(C)C(=O)N3C)cc1` yielded a melting point of more than 270 °C.

For the molecule `CCCC1CC2=CC(=O)CCC2C2CCC3(C)C(OC(C)=O)CCC3C12` (stereo not given), the melting point lay within 97 to 100 °C.

In the case of `CC(=O)Oc1cc(O)c(Cl)cn1`, the melting point is 270 to 272 °C.

`CCCCCCC#CC(O)C1=Nc2ccccc2C(=O)C1C` (stereo not given): the melting point is 148 to 149 °C.

`C#CC(C)N1C(=O)c2ccccc2C1=O` (stereo not given) yielded a melting point of 104 to 106 °C.

The molecule `COCc1c(C=O)ncc2[nH]c3cccc(Cc4ccc(Cl)cc4)c3c12` registered a melting point of 248 to 250 °C.

In the case of `COc1ccc(-c2[nH]nc3c2C(=O)c2c(NC(=O)CN4CCOCC4)cccc2-3)cc1`, the melting point came to 295 °C.

As to `CCCCCc1c([N+](=O)[O-])cc([N+](=O)[O-])c2nc(C(F)(F)F)[nH]c12`, the melting point is 86 to 88 °C.

Turning to `CCCC(=O)c1cnc2c(OC)cccc2c1Nc1ccccc1OC`, the melting point was in the range of 159 to 161 °C.

Take `COc1ccnc(CCc2nc3cccnc3[nH]2)c1`: the melting point was 116 to 117 °C.

For the molecule `Cc1ccc(C(=C/C=C/C(=O)O)c2ccc(C)cc2)cc1`, the melting point fell in the range of 224 to 226 °C.

`CC(=O)N1CCC(CCCCC(=O)c2ccc(F)cc2)CC1` registered a melting point of 98 to 100 °C.

Regarding `CNC1=NS(=O)(=O)N=C1NCCSCc1csc(N)n1`, the melting point lay within 200 to 201 °C.

The molecule `Cc1cccc(NC(=O)c2cc([N+](=O)[O-])ccc2NC(=O)CF)c1C` registered a melting point of 236 to 239 °C.

Take `Nc1cccc(S(=O)(=O)NC(=O)C(F)(F)F)c1`: the melting point is 106 to 108 °C.

For the molecule `O=C(O)c1cn(C2CC2)c2cc(F)c(F)c(NCc3ccccc3)c2c1=O`, the melting point is 214 to 216 °C.

In turn, `Cc1sc(CCc2ccc(C=CC=C3OC(=O)NC3=O)cc2)nc1-c1ccccc1` came in with a melting point of 161 to 162 °C.

`Cc1ccc2c(c1)C=Cn1c(nnc1S(C)=O)C2` (stereo not given) had a melting point of 158 to 159 °C.

Turning to `Cc1cccc(C(=O)C=CC(=O)O)c1`, the melting point is 115 to 117 °C.

With `CC1(C)SC(c2ccccc2OCCO[N+](=O)[O-])NC1C(=O)O` (stereo not given), the melting point lay in the range of 98 to 101 °C.

As for `CCOCc1nc2c(N)nc3ccccc3c2n1CC1(NC(=O)OCC)CCCCC1`, the melting point was 95 to 100 °C.

With `Cc1cccc(-n2nc(C)cc2N)n1`, the melting point is 149 to 150 °C.

In the case of `CN(c1ccc(Cl)cc1)c1nc(=O)c2cccnc2s1`, the melting point fell in the range of 189 to 190 °C.

The molecule `CCCC12COC(C=O)(OC1)OC2` showed a melting point of 117 to 118 °C.

For the molecule `N#CCCCN(Cc1ccccc1)Cc1ccccc1`, the melting point lay within 45 to 46 °C.

Take `CN1CCN(C(=O)c2cc3ccccc3c(=O)[nH]2)CC1`: the melting point fell in the range of 170 to 172 °C.

Turning to `N#Cc1ccc2nc(C(=O)NCc3cccc(NC(=O)CCc4nc[nH]n4)c3)[nH]c(=O)c2c1`, the melting point fell in the range of 298 to 301 °C.

`O=S(=O)(Nc1cccc(CCOCc2csc(-c3ccc(OC(F)(F)F)cc3)n2)c1)C(F)(F)F` registered a melting point of 115 to 116 °C.

`Clc1ccc2c(c1)Cc1cc(Cl)ccc1OCCOCCOCCOCCO2` yielded a melting point of 144 °C.

For the molecule `CCNC(=O)Nc1nc2cc(-c3cccnc3)cc(N3CCC(N(C)C)C3)n2n1` (stereo not given), the melting point was 248 to 250 °C.

As to `CCOC(=O)CCC(=O)N[C@@H](CC(C)C)C(=O)N[C@@H](C(C)C)[C@@H](O)c1c(-c2ccccc2)c1=O`, the melting point lay within 111 to 112 °C.

As for `O=C(O)Cn1cc(C(=O)c2ccn3c2CSC3c2cccnc2)c2ccc(-c3ccc(F)cc3)cc21` (stereo not given), the melting point fell in the range of 240 to 249 °C.

`COCC1COC(Cn2cncn2)(c2ccc(Cl)cc2Cl)O1` (stereo not given) yielded a melting point of 64 to 74 °C.

On to `Cc1ccc2[nH]c(-c3ccccc3)cc(=O)c2c1`, for which the melting point is 290 to 292 °C.

In turn, `CSc1ccc(-c2nc(SC)ccc2-c2ccc(S(C)(=O)=O)cc2)cc1` gave a melting point of 175 °C.

For `Fc1ccc(C2OC(=S)OC2(Cn2cncn2)c2ccc(Cl)cc2Cl)cc1` (stereo not given), the melting point was in the range of 169 to 170 °C.

`O=C(O)Cc1ccc(-n2cnc3cnc4ccccc4c32)cc1` yielded a melting point of 236 to 240 °C.

The molecule `CCCCOc1ccc2cc(Br)ccc2c1` displayed a melting point of 48 to 50 °C.

The molecule `CC(=O)NC(C)C(=O)NC(C)C(=O)NC(CC(C)C)C(=O)O` (stereo not drawn) (Ac-Ala-Ala-Leu-OH; configuration not given here) returned a melting point of 185 to 186 °C.

Consider `CN(C)CCCCOc1ccc(-c2nnc(CSCCOc3ccccc3)o2)cc1`, for which the melting point fell in the range of 62 to 63 °C.

For the molecule `O=C1CCCCN1S(=O)(=O)c1ccc(N2CCCCCCC2)cc1`, the melting point fell in the range of 150 to 152 °C.

Take `CSc1ccc(-c2nn(Cc3ccccc3)c(=O)cc2-c2ccc(F)cc2)cc1`: the melting point is 141 °C.

`FC(F)(F)c1cc(Nc2ccc3[nH]ccc3c2)nc(-c2cccnc2)n1` showed a melting point of 142 to 143 °C.

In turn, `CC12CCC(OS(=O)(=O)C(F)(F)F)=CC1=CCC1C2CCC2(C)C(C(=O)O)CCC12` (stereo not given) gave a melting point of 140 to 150 °C.

In the case of `C#Cc1ccc2sccc2c1`, the melting point amounted to 55 °C.
